Source: patent US10829473B2, “Modulators of the cystic fibrosis transmembrane conductance regulator protein and methods of use” (AbbVie Overseas S.Á.R.L., priority 2017, dated 2020)
Read-outs that look alike come from different tables or passages of the source.

Target: T1, F508delCFTR (Homo sapiens, UniProt P13569, DEL508-508)
T1 construct: expressed in transfected cells; host or cells: CFBE41o- human lung derived epithelial cells (CFBE41o-F508delCFTR-HRP), doxycycline-inducible
Experiment: Cell Surface Expression-Horse Radish Peroxidase (CSE-HRP) Assay
Assay type: cell-based
Conditions: for Maximum % activity (with co-corrector) / Emax: maximum at any tested concentration; for Emax: read-out: Maximum % activity (without co-corrector)
Method: A cellular assay for measuring the F508delCFTR cell surface expression after correction with test compounds either without or with a co-corrector (2 μM of 3-[(2R,4R)-4-({[1-(2,2-difluoro-1,3-benzodioxol-5-yl)cyclopropyl]carbonyl}amino)-7-methoxy-3,4-dihydro-2H-chromen-2-yl]benzoic acid), was developed in human lung derived epithelial cell line (CFBE4lo−) (Veit G et al, (2012) Mol Biol Cell. 23(21): 4188-4202). The development was achieved by expressing the F508delCFTR mutation along with a horseradish peroxidase (HRP) in the fourth exofacial loop, and then measuring the HRP activity using luminescence readout from these cells, CFBE410-F508delCFTR-HRP, that were incubated overnight with the test corrector compounds, either without or with the co-corrector. For this primary assay, the CFBE410-F508delCFTR-HRP cells were plated in 384-well plates (Greiner Bio-one; Cat 781080) at 4,000 cells/well along with 0.5 μg/mL doxycycline to induce the F508delCFTR-HRP expression and further incubated at 37° C., 5% CO2 for 68-72 hours. The test compounds were then added either without or with a co-corrector at the required concentrations and further incubated for 18-24 hours at 33° C. The highest concentration tested was 20 μM or 30 μM (GI-1 to GIII-36) with an 8-point concentration response curve using a 3-fold dilution in both the test compound without or with the co-corrector. Three replicate plates were run to determine one EC50. All plates contained negative controls (dimethyl sulfoxide, DMSO) and positive control (2 μM or 3 μM (GI-1 to GIII-36) of 3-[(2R,4R)-4-({[1-(2,2-difluoro-1,3-benzodioxol-5-yl)cyclopropyl]carbonyl}amino)-7-methoxy-3,4-dihydro-2H-chromen-2-yl]benzoic acid) as well as on-plate concentration response of the positive control. Post incubation, the plates were washed 5× times with Dulbecco's phosphate buffered saline (DPBS), followed by the addition of the HRP substrate, luminol (50 4), and measuring the HRP activity using luminescence readout on EnVision® Multilabel Plate Reader (Perkin Elmer; product number 2104-0010). The raw counts from the experiment were analyzed using Accelrys® Assay Explorer v3.3.
Z′ greater than 0.5 was used as passing quality control criteria for the plates.
The Z′ is defined as: 1−[3*SDPositve Control+3*SDNegative Control/Absolute(MeanPositive Control−MeanNegative Control)] wherein “SD” is standard deviation.
The % activity measured at each of the 8 test concentrations of the test compound added either without or with a co-corrector (2 μM or 3 μM (GI-1 to GIII-36) of 3-[(2R,4R)-4-({[1-(2,2-difluoro-1,3-benzodioxol-5-yl)cyclopropyl]carbonyl}amino)-7-methoxy-3,4-dihydro-2H-chromen-2-yl]benzoic acid) was normalized to the on-plate positive control using the following formulae: % activity (Test compound without co-corrector)=[(test compound without co-corrector response DMSO response)/(positive control response DMSO response)]*100 % activity (Test compound with co-corrector)=[(test compound with co-corrector response DMSO response)/(positive control response DMSO response)]*100
The maximum % activity achieved for the test compound either without or with a co-corrector at any tested concentration is presented in Table 6 along with the respective EC50's calculated using the following general sigmoidal curve with variable Hill slope equation (described as Model 42 in the Accelrys® Assay Explorer v3.3 software): y=(a−d)/(1+(x/c)b)+d
General sigmoidal curve with concentration, response, top, bottom, EC50 and Hill slope. This model describes a sigmoidal curve with an adjustable baseline, a. The equation can be used to fit curves where response is either increasing or decreasing with respect to the independent variable, “x”.
“x” is a concentration of drug under test.
“a” is the maximum response, and “d” is the minimum response
“c” is the inflection point (EGO for the curve. That is, “y” is halfway between the lower and upper asymptotes when x=c.
“b” is the slope-factor or Hill coefficient. […]

[1] = test compound with co-corrector
[2] = test compound with co-corrector, read-out: EC50 (with co-corrector)
[3] = test compound without co-corrector
[4] = test compound without co-corrector, read-out: EC50 (without co-corrector)

T1 sequence (P13569 with tags, fused parts or gaps DEL508-508): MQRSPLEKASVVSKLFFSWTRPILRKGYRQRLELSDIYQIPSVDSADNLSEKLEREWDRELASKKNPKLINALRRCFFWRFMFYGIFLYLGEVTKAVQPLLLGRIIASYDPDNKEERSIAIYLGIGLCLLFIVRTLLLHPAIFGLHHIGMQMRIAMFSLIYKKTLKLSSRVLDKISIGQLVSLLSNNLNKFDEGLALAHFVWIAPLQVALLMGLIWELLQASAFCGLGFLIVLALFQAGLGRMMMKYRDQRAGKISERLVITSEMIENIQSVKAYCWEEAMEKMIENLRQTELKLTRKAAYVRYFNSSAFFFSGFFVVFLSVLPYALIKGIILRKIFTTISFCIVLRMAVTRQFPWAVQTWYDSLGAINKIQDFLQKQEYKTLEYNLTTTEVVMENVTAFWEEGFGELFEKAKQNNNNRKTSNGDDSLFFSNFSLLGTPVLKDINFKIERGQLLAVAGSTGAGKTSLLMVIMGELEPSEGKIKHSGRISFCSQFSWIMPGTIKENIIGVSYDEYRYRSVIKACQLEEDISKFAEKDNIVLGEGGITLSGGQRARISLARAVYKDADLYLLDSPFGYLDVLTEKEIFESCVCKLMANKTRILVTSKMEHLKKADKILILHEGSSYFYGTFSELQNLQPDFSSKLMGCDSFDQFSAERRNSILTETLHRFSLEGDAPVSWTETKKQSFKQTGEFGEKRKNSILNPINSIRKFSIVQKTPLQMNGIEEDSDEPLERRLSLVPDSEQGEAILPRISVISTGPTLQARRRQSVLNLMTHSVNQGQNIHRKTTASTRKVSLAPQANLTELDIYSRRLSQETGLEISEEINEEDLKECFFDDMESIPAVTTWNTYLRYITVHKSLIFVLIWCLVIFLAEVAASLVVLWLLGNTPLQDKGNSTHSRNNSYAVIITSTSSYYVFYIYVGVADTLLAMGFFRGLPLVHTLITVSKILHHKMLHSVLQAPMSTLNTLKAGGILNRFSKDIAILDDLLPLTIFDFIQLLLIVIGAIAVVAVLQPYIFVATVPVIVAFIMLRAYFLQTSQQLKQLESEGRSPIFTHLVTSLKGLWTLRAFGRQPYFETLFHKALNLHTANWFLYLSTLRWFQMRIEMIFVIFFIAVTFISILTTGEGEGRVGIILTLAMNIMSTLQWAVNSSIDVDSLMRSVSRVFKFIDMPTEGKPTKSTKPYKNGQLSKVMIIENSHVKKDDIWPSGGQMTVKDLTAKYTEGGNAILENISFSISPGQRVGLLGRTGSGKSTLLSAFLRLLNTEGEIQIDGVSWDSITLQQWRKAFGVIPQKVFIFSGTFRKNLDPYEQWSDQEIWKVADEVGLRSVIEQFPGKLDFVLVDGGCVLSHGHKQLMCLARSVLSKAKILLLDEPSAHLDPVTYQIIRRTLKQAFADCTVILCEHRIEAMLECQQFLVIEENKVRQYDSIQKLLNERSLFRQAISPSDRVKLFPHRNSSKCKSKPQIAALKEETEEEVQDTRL

| Maximum % activity (with co-corrector) [1] | EC50 [2] [µM] | Emax [3] [%] | EC50 [4] [µM] | Structure (SMILES) |
| --- | --- | --- | --- | --- |
| +++ (≥350) | 3 to 10 | > 150 | 3 to 10 | CCc1ccc(OC(C)C)c(C2(C(=O)NS(=O)(=O)c3cccc4nc(C)ccc34)CC2)n1 [Example GI-54, 1-{6-ethyl-3-[(propan-2-yl)oxy]pyridin-2-yl}-N-(2-methylquinoline-5-sulfonyl)cyclopropane-1-carboxamide] |
| +++ (≥350) | < 3 | > 150 | < 3 | Cc1cnc(OC(C)C)c(C2(C(=O)NS(=O)(=O)c3cccc4nc(C)ccc34)CC2)c1 [Example GI-58, 1-{5-methyl-2-[(propan-2-yl)oxy]pyridin-3-yl}-N-(2-methylquinoline-5-sulfonyl)cyclopropane-1-carboxamide] |
| +++ (≥350) | < 3 | > 150 | 3 to 10 | Cc1cnc(OC(C)C)c(C2(C(=O)NS(=O)(=O)c3cccc4[nH]ccc34)CC2)c1 [Example GI-59, N-(1H-indole-4-sulfonyl)-1-{5-methyl-2-[(propan-2-yl)oxy]pyridin-3-yl}cyclopropane-1-carboxamide] |
| +++ (≥350) | < 3 | > 150 | < 3 | Cc1ccc2c(S(=O)(=O)NC(=O)C3(c4cc(C5CC5)cnc4OC(C)C)CC3)cccc2n1 [Example GI-60, 1-{5-cyclopropyl-2-[(propan-2-yl)oxy]pyridin-3-yl}-N-(2-methylquinoline-5-sulfonyl)cyclopropane-1-carboxamide] |
| +++ (≥350) | < 3 | > 150 | < 3 | CC(C)Oc1ncc(C2CC2)cc1C1(C(=O)NS(=O)(=O)c2cccc3[nH]ccc23)CC1 [Example GI-61, 1-{5-cyclopropyl-2-[(propan-2-yl)oxy]pyridin-3-yl}-N-(1H-indole-4-sulfonyl)cyclopropane-1-carboxamide] |
| +++ (≥350) | < 3 | > 150 | < 3 | Cc1ccc2c(S(=O)(=O)NC(=O)C3(c4cc(N5CCCC5)cnc4OC(C)C)CC3)cccc2n1 [Example GI-63, N-(2-methylquinoline-5-sulfonyl)-1-{2-[(propan-2-yl)oxy]-5-(pyrrolidin-1-yl)pyridin-3-yl}cyclopropane-1-carboxamide] |
| +++ (≥350) | < 3 | > 150 | 3 to 10 | Cc1ccc2c(S(=O)(=O)NC(=O)C3(c4cc(OC(C)C)cnc4OC(C)C)CC3)cccc2n1 [Example GI-67, 1-{2,5-bis[(propan-2-yl)oxy]pyridin-3-yl}-N-(2-methylquinoline-5-sulfonyl)cyclopropane-1-carboxamide] |
| +++ (≥350) | < 3 | > 150 | < 3 | Cc1ccc2c(S(=O)(=O)NC(=O)C3(c4cc(N5CCCC5)cnc4OCC(C)C)CC3)cccc2n1 [Example GI-69, 1-[2-(2-methylpropoxy)-5-(pyrrolidin-1-yl)pyridin-3-yl]-N-(2-methylquinoline-5-sulfonyl)cyclopropane-1-carboxamide] |
| +++ (≥350) | < 3 | > 150 | 3 to 10 | CC(C)Oc1ncc(N(C)C)cc1C1(C(=O)NS(=O)(=O)c2cccc3ncccc23)CC1 [Example GI-71, 1-{5-(dimethylamino)-2-[(propan-2-yl)oxy]pyridin-3-yl}-N-(quinoline-5-sulfonyl)cyclopropane-1-carboxamide] |

Further lines, the compound ahead of its results:

| Structure (SMILES) | Maximum % activity (with co-corrector) [1] | EC50 [2] [µM] | Emax [3] [%] | EC50 [4] [µM] |
| --- | --- | --- | --- | --- |
| CCc1ccc(OC(C)C)c(C2(C(=O)NS(=O)(=O)c3cccc4ncccc34)CC2)n1 [Example GI-55, 1-{6-ethyl-3-[(propan-2-yl)oxy]pyridin-2-yl}-N-(quinoline-5-sulfonyl)cyclopropane-1-carboxamide] | +++ (≥350) | < 3 | > 150 | 3 to 10 |
| CCc1ccc(OC(C)C)c(C2(C(=O)NS(=O)(=O)c3cccc4[nH]ccc34)CC2)n1 [Example GI-56, 1-{6-ethyl-3-[(propan-2-yl)oxy]pyridin-2-yl}-N-(1H-indole-4-sulfonyl)cyclopropane-1-carboxamide] | +++ (≥350) | < 3 | > 150 | 3 to 10 |
| COC1CCN(c2ncc(C3CCC3)cc2C2(C(=O)NS(=O)(=O)c3cccc4[nH]ccc34)CC2)CC1 [Example GI-57, 1-[5-cyclobutyl-2-(4-methoxypiperidin-1-yl)pyridin-3-yl]-N-(1H-indole-4-sulfonyl)cyclopropane-1-carboxamide] | +++ (≥350) | < 3 | > 150 | < 3 |
| CC(C)Oc1ncc(N2CCCC2)cc1C1(C(=O)NS(=O)(=O)c2cccc3ncccc23)CC1 [Example GI-62, 1-{2-[(propan-2-yl)oxy]-5-(pyrrolidin-1-yl)pyridin-3-yl}-N-(quinoline-5-sulfonyl)cyclopropane-1-carboxamide] | +++ (≥350) | < 3 | > 150 | < 3 |
| CC(C)Oc1ncc(N2CCCC2)cc1C1(C(=O)NS(=O)(=O)c2cccc3[nH]ccc23)CC1 [Example GI-64, N-(1H-indole-4-sulfonyl)-1-{2-[(propan-2-yl)oxy]-5-(pyrrolidin-1-yl)pyridin-3-yl}cyclopropane-1-carboxamide] | +++ (≥350) | < 3 | > 150 | < 3 |
| CC(C)Oc1cnc(OC(C)C)c(C2(C(=O)NS(=O)(=O)c3cccc4ncccc34)CC2)c1 [Example GI-65, 1-{2,5-bis[(propan-2-yl)oxy]pyridin-3-yl}-N-(quinoline-5-sulfonyl)cyclopropane-1-carboxamide] | +++ (≥350) | < 3 | > 150 | < 3 |
| CC(C)Oc1cnc(OC(C)C)c(C2(C(=O)NS(=O)(=O)c3cccc4[nH]ccc34)CC2)c1 [Example GI-66, 1-{2,5-bis[(propan-2-yl)oxy]pyridin-3-yl}-N-(1H-indole-4-sulfonyl)cyclopropane-1-carboxamide] | +++ (≥350) | < 3 | > 150 | < 3 |
| CC(C)COc1ncc(N2CCCC2)cc1C1(C(=O)NS(=O)(=O)c2cccc3ncccc23)CC1 [Example GI-68, 1-[2-(2-methylpropoxy)-5-(pyrrolidin-1-yl)pyridin-3-yl]-N-(quinoline-5-sulfonyl)cyclopropane-1-carboxamide] | +++ (≥350) | < 3 | > 150 | < 3 |
| CC(C)COc1ncc(N2CCCC2)cc1C1(C(=O)NS(=O)(=O)c2cccc3[nH]ccc23)CC1 [Example GI-70, N-(1H-indole-4-sulfonyl)-1-[2-(2-methylpropoxy)-5-(pyrrolidin-1-yl)pyridin-3-yl]cyclopropane-1-carboxamide] | +++ (≥350) | < 3 | > 150 | < 3 |
